# Assay results as given in US20250090540A1, “PI3K-ALPHA INHIBITORS AND METHODS OF USE THEREOF” (Relay Therapeutics, Inc., priority 2021, published 2025).
# Target: H1047R PIK3CA enzyme (Homo sapiens, UniProt P42336, H1047R)
# Test: ADP-Glo Biochemical PIK3CA Kinase Assay
# Protocol: Compounds to be assayed were plated in 16 doses of 1:2 serial dilutions (20 nL volume each well) on a 1536-well plate, and the plate warmed to room temperature. PIK3CA enzyme (e.g. H1047R, E542K, E545K, or wild-type) (1 μL of 2 nM solution in Enzyme Assay Buffer (comprising 50 mM HEPES pH 7.4, 50 mM NaCl, 6 mM MgCl2, 5 mM DTT and 0.03% CHAPS)) was added and shaken for 10 seconds and preincubated for 30 minutes. To the well was added 1 μL of 200 μM ATP and 20 μM of diC8-PIP2 in Substrate Assay Buffer (50 mM HEPES pH7.4, 50 mM NaCl, 5 mM DTT and 0.03% CHAPS) to start the reaction, and the plate was shaken for 10 seconds, then spun briefly at 1500 rpm, and then incubated for 60 minutes at room temperature. The reaction was stopped by adding 2 μL of ADP-Glo reagent (Promega), and spinning briefly at 1500 rpm, and then incubating for 40 minutes. ADP-Glo Detection reagent (Promega) was added and the plate spun briefly at 1500 rpm, then incubated for 30 minutes.
# H1047R PIK3CA enzyme, sequence (P42336 whole entry H1047R): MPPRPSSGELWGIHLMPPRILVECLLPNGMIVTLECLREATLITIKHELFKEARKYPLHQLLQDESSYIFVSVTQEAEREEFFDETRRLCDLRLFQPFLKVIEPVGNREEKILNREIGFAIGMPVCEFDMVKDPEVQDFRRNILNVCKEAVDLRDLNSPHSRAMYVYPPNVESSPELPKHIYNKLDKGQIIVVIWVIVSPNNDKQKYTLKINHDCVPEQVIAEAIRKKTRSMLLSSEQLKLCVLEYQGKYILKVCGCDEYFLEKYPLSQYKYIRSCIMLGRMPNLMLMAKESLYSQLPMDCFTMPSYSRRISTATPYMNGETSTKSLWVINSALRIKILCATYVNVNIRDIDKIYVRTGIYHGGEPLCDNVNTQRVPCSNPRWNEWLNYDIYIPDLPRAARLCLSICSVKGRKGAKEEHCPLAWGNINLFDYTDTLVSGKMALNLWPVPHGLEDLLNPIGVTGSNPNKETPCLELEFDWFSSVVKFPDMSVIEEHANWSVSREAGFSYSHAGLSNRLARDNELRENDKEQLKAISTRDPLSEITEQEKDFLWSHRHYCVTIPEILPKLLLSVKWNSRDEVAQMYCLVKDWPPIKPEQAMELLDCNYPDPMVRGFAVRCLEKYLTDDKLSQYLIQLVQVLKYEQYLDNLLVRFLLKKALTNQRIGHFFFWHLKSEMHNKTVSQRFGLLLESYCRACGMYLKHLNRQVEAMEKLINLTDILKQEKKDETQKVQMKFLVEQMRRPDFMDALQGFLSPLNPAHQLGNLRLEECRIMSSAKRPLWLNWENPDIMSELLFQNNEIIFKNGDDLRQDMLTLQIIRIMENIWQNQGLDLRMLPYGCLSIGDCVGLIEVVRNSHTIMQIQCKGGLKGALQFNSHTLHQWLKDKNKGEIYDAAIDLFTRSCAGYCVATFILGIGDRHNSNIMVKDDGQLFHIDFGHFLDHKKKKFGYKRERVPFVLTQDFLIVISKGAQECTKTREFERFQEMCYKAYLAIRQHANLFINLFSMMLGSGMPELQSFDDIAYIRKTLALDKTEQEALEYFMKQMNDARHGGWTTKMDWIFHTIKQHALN
# H1047R PIK3CA enzyme, sequence (P27986 whole entry partner): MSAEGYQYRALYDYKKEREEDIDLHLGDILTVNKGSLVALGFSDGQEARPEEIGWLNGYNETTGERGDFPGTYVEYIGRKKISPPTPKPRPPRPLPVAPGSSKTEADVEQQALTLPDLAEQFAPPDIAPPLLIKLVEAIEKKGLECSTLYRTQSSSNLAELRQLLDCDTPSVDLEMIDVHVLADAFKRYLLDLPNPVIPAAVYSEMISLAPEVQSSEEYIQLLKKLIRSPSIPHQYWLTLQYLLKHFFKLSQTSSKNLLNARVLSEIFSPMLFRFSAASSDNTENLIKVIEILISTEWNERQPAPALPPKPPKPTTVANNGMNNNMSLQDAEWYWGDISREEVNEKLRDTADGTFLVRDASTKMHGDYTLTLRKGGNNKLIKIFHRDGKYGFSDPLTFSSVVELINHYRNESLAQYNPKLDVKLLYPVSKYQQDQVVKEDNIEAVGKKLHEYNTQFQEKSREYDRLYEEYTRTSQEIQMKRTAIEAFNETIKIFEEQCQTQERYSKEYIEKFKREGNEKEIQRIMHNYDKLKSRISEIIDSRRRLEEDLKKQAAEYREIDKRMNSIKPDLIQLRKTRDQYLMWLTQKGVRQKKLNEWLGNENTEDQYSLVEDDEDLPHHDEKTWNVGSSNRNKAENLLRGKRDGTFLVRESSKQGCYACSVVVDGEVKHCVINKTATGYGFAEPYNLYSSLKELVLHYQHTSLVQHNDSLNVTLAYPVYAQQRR
row,SMILES,IC50
1,CNC(=O)c1cnc(Nc2ccccc2C)c(NC(=O)Cc2cn(C)c3ccccc23)c1 [I-167],10 to 100 µM
2,CNC(=O)c1cnc(Nc2ccccc2C)c(NC(=O)[C@@H](OC)c2ccccc2)c1 [I-169],10 to 100 µM
3,CNC(=O)c1cnc(Nc2ccccc2C)c(NC(=O)CC2CCc3ccccc32)c1 (centres unmarked) [I-170],10 to 100 µM
4,CNC(=O)c1cnc(Nc2ccccc2C)c(NC(=O)[C@]23C[C@H]4C[C@H](C[C@H](C4)C2)C3)c1 [I-171],1 to 10 µM
5,Cc1ccccc1Nc1ncc(-c2cnn(C)c2)cc1NS(=O)(=O)c1ccccc1 [I-172],10 to 100 µM
6,CNC(=O)c1cnc(Nc2ccccc2C)c(NC(=O)c2n[nH]c3ccccc23)c1 [I-175],10 to 100 µM
7,CNC(=O)c1cnc(NCc2nccn2C)c(NC(=O)c2cc(F)cc(C(F)(F)F)c2)c1 [I-185],10 to 100 µM
8,CNC(=O)c1cnc(Nc2ccccc2C)c(NC(=O)c2cc(F)cc(C3CC3)c2)c1 [I-188],1 to 10 µM
9,Cc1ccccc1Nc1ncc(C(=O)NCC2(O)CCCCC2)cc1NC(=O)c1csc2ccccc12 [I-189],0.5 to 1 µM
10,CNC(=O)c1cnc(Nc2ccnc(C)c2)c(NC(=O)c2cc(F)cc(C(F)(F)F)c2)c1 [I-200],10 to 100 µM
11,CNC(=O)c1cnc(N2CC3CCCN3CC2C)c(NC(=O)c2cc(F)cc(C(F)(F)F)c2)c1 (centres unmarked) [I-202],10 to 100 µM
12,COC(=O)c1cnc(Nc2ccc(C)cc2)c(NC(=O)c2csc3ccccc23)c1 [I-206],10 to 100 µM
13,CNC(=O)c1cnc(Nc2ccccc2C)c(NC(=O)c2csc(Cl)c2Cl)c1 [I-213],10 to 100 µM
14,CC1CCc2ccccc2N1c1ncc(C(=O)NC2CS(=O)(=O)C2)cc1NC(=O)c1csc2ccccc12 (centres unmarked) [I-216],1 to 10 µM
15,CC1CCc2ccccc2N1c1ncc(C(=O)NCc2nccs2)cc1NC(=O)c1csc2ccccc12 (centres unmarked) [I-217],1 to 10 µM
16,CNC(=O)c1cnc(N2c3ccccc3CCC2C)c(NC(=O)c2csc3ccccc23)c1 (centres unmarked) [I-218],10 to 100 µM
17,Cc1ccccc1Nc1cnccc1NC(=O)c1cc(F)cc(C(F)(F)F)c1 [I-220],1 to 10 µM
18,Cc1ccc(Nc2ncc(C(=O)NCc3ccn(C)n3)cc2NC(=O)c2csc3ccccc23)cc1 [I-223],1 to 10 µM
19,Cc1ccc(Nc2ncc(C(=O)NCc3cnn(C)c3)cc2NC(=O)c2csc3ccccc23)cc1 [I-224],10 to 100 µM
20,Cc1ccccc1Nc1ncc(C(=O)Nc2ccccc2)cc1NC(=O)c1cc(F)cc(C(F)(F)F)c1 [I-231],1 to 10 µM

row,SMILES,IC50
1,CNC(=O)c1cnc(Nc2ccccc2C)c(NC(=O)c2nccc3ccccc23)c1 [I-233],10 to 100 µM
2,CNC(=O)c1cnc(Nc2ccccc2C)c(NC(=O)c2cccc3ccncc23)c1 [I-238],10 to 100 µM
3,CNC(=O)c1cnc(Nc2ccccc2C)c(NC(=O)c2csc(C(F)(F)F)n2)c1 [I-241],10 to 100 µM
4,CNC(=O)c1cnc(Nc2ccccc2C)c(NC(=O)c2csc(N)n2)c1 [I-243],10 to 100 µM
5,CNC(=O)c1cnc(N2CCNc3ccccc32)c(NC(=O)c2csc3ccccc23)c1 [I-244],10 to 100 µM
6,CNC(=O)c1cnc(Nc2ccccc2C)c(NC(=O)C2CCSc3ccccc32)c1 (centres unmarked) [I-260],10 to 100 µM
7,Cc1ccccc1Nc1ncc(C(=O)Nc2ccncn2)cc1NC(=O)c1cc(F)cc(C(F)(F)F)c1 [I-262],0.5 to 1 µM
8,Cc1cnnc(NC(=O)c2cnc(Nc3ccccc3C)c(NC(=O)c3cc(F)cc(C(F)(F)F)c3)c2)c1 [I-264],1 to 10 µM
9,Cc1ccccc1Nc1ncc(N2CCNCC2)cc1NC(=O)c1cc(F)cc(C(F)(F)F)c1 [I-268],0.5 to 1 µM
10,Cc1ccccc1Nc1ncc(N2CCN(C(=O)OC(C)(C)C)CC2)cc1NC(=O)c1cc(F)cc(C(F)(F)F)c1 [I-270],1 to 10 µM
11,Cc1ccccc1Nc1cc(=O)n(C)cc1NC(=O)c1csc2ccccc12 [I-280],1 to 10 µM
12,CNC(=O)c1cnc(N2CCC(C)c3ccccc32)c(NC(=O)c2cc(F)cc(C(F)(F)F)c2)c1 (centres unmarked) [I-282],1 to 10 µM
13,CNC(=O)c1cnc(Nc2ccccc2C)c(NC(=O)c2csc3ncccc23)c1 [I-283],10 to 100 µM
14,CCn1cccc(C(=O)Nc2cc(C(=O)NC)cnc2Nc2ccccc2C)c1=O [I-284],10 to 100 µM
15,CNC(=O)c1cnc(Nc2ccccc2C)c(NC(=O)c2cc(F)cc(-c3ccccc3)c2)c1 [I-318],10 to 100 µM
16,CNC(=O)c1cnc(Nc2ccccc2C)c(NC(=O)c2cc(F)cc3ccccc23)c1 [I-320],10 to 100 µM
17,O=C(Nc1cccc(=O)n1Cc1ccccc1)c1csc2ccccc12 [I-321],10 to 100 µM
18,CNC(=O)c1cnc(Nc2ccccc2C)c(NC(=O)c2cc(F)c3ccccc3c2)c1 [I-322],10 to 100 µM
19,CNC(=O)c1cnc(NCc2cncn2C)c(NC(=O)c2cc(F)cc(C(F)(F)F)c2)c1 [I-323],10 to 100 µM

# Other lines, results leading:
row,IC50,SMILES
1,10 to 100 µM,CNC(=O)c1cnc(Nc2cccnc2C)c(NC(=O)c2cc(F)cc(C(F)(F)F)c2)c1 [I-173]
2,10 to 100 µM,CNC(=O)c1cnc(Nc2ccc(OC)cc2)c(NC(=O)c2cc(F)cc(C(F)(F)F)c2)c1 [I-174]
3,10 to 100 µM,CNC(=O)c1cnc(Nc2ccccc2C)c(NC(=O)c2cnc3ccccc3c2)c1 [I-176]
4,10 to 100 µM,CNC(=O)c1cnc(Nc2ccccc2C)c(NC(=O)c2cc(C(F)(F)F)cc(C(F)(F)F)c2)c1 [I-177]
5,1 to 10 µM,Cc1ccccc1Nc1ncc(NCC(=O)O)cc1NC(=O)c1cc(F)cc(C(F)(F)F)c1 [I-179]
6,10 to 100 µM,CNC(=O)c1cnc(Nc2ccccc2C)c(NC(=O)c2ccc3ccccc3c2)c1 [I-182]
7,10 to 100 µM,CNC(=O)c1cnc(Nc2ccccc2C)c(NC(=O)c2ccc3ncccc3c2)c1 [I-183]
8,10 to 100 µM,CNC(=O)c1cnc(Nc2ccccc2C)c(NC(=O)c2cc3ccccc3cn2)c1 [I-184]
9,1 to 10 µM,Cc1ccccc1Nc1ncc(NCC(N)=O)cc1NC(=O)c1cc(F)cc(C(F)(F)F)c1 [I-186]
10,10 to 100 µM,CNC(=O)c1cnc(Nc2ccccc2C)c(NC(=O)c2nc(SC)ncc2Cl)c1 [I-187]
11,0.5 to 1 µM,Cc1ccccc1Nc1ncc(C(=O)Nc2cc[nH]c(=O)n2)cc1NC(=O)c1csc2ccccc12 [I-194]
12,10 to 100 µM,CNC(=O)c1cnc(Nc2ccc(C)nc2)c(NC(=O)c2cc(F)cc(C(F)(F)F)c2)c1 [I-201]
13,10 to 100 µM,CNC(=O)c1cnc(N)c(NC(=O)c2cc(F)cc(C(F)(F)F)c2)c1 [I-204]
14,10 to 100 µM,CNC(=O)c1cnc(Nc2ccccc2C)c(NC(=O)c2ccc3c(n2)CCCN3)c1 [I-205]
15,1 to 10 µM,CNC(=O)c1cnc(Nc2ccccc2C)c(NC(=O)c2cn(C)c3ccccc23)c1 [I-207]
16,10 to 100 µM,CNC(=O)c1cnc(Nc2ccccc2CN)c(NC(=O)c2csc3ccccc23)c1 [I-214]
17,1 to 10 µM,Cc1ccccc1Nc1cnccc1NC(=O)c1csc2ccccc12 [I-221]
18,1 to 10 µM,Cc1ccc(Nc2ncc(C(=O)NC3CS(=O)(=O)C3)cc2NC(=O)c2csc3ccccc23)cc1 [I-222]
19,1 to 10 µM,Cc1ccc(Nc2ncc(C(=O)NCc3nccs3)cc2NC(=O)c2csc3ccccc23)cc1 [I-225]
20,10 to 100 µM,CNC(=O)c1cnc(Nc2ccc(C)cc2)c(NC(=O)c2csc3ccccc23)c1 [I-226]
21,1 to 10 µM,Cc1ccccc1Nc1ncc(C(=O)Nc2cc[nH]n2)cc1NC(=O)c1cc(F)cc(C(F)(F)F)c1 [I-230]

row,IC50,SMILES
1,0.5 to 1 µM,Cc1ccccc1Nc1ncc(C(=O)Nc2ccn(C)n2)cc1NC(=O)c1cc(F)cc(C(F)(F)F)c1 [I-235]
2,10 to 100 µM,CNC(=O)c1cnc(Nc2ccccc2C)c(NC(=O)c2ccc(F)c3ccccc23)c1 [I-236]
3,10 to 100 µM,CNC(=O)c1cnc(Nc2ccccc2C)c(NC(=O)c2cccc3cnccc23)c1 [I-237]
4,10 to 100 µM,CNC(=O)c1cnc(Nc2ccccc2C)c(NC(=O)c2csc(C)n2)c1 [I-242]
5,10 to 100 µM,CNC(=O)c1cnc(Nc2ccccc2C)c(NC(=O)Cc2cccnc2)c1 [I-250]
6,10 to 100 µM,CNC(=O)c1cnc(Nc2ccccc2C)c(NC(=O)C2CCOc3ccccc32)c1 (centres unmarked) [I-259]
7,1 to 10 µM,Cc1ccc(Nc2ncc(C(=O)NCc3ccnn3C)cc2NC(=O)c2csc3ccccc23)cc1 [I-261]
8,1 to 10 µM,Cc1ccc(NC(=O)c2cnc(Nc3ccccc3C)c(NC(=O)c3cc(F)cc(C(F)(F)F)c3)c2)nc1 [I-263]
9,0.5 to 1 µM,Cc1ccccc1Nc1ncc(C(=O)Nc2cncnc2)cc1NC(=O)c1cc(F)cc(C(F)(F)F)c1 [I-265]
10,1 to 10 µM,CNC(=O)c1cnc(Nc2ncccc2C)c(NC(=O)c2cc(F)cc(C(F)(F)F)c2)c1 [I-269]
11,1 to 10 µM,COCCn1cc(NC(=O)c2csc3ccccc23)c(N2CCOc3ccccc32)cc1=O [I-271]
12,1 to 10 µM,Cn1cc(NC(=O)c2csc3ccccc23)c(N2CCOc3ccccc32)cc1=O [I-272]
13,1 to 10 µM,Cn1cc(NC(=O)c2cc(F)cc(C(F)(F)F)c2)c(N2CCOc3ccccc32)cc1=O [I-273]
14,10 to 100 µM,O=C(NC1CS(=O)(=O)C1)c1cnc(N2CCCOc3ccccc32)c(NC(=O)c2csc3ccccc23)c1 [I-277]
15,10 to 100 µM,CNC(=O)c1cnc(N2CCNCc3ccccc32)c(NC(=O)c2cc(F)cc(C(F)(F)F)c2)c1 [I-281]
16,10 to 100 µM,CNC(=O)c1cnc(Nc2ccccc2C)c(NC(=O)Cc2ccccc2S(C)(=O)=O)c1 [I-306]
17,10 to 100 µM,CNC(=O)c1cnc(Nc2ccccc2C)c(NC(=O)c2cc(F)cc3cccnc23)c1 [I-319]
18,10 to 100 µM,Cc1ccccc1NC(=O)c1cc(NC(=O)c2cc(F)cc(C(F)(F)F)c2)c(Nc2ccccc2C)cn1 [I-324]
19,1 to 10 µM,CNC(=O)c1cc(NC(=O)c2cc(F)cc(C(F)(F)F)c2)c(N(C)c2ccccc2C)cn1 [I-325]
20,10 to 100 µM,CNC(=O)c1cnc(Nc2ccccc2C)c(Nc2cc(F)c3cn[nH]c3c2)c1 [I-327]
